The values below come from article PMC12830989, “Subcellular glycan-mannose receptor binding kinetics correlate with myeloid cell function” (Nature Communications, 2025).

Several values for one entry are separate records, joined by “and”; a condition that tells them apart may be missing. Equal values may be shown once. sCy5 = sulfo-Cy5

The subject of assay [1] is MR^−/− BMDC. As to the kind of experiment: Glyco-PAINT-APP single-molecule glycan binding on live MR-/- BMDC. Further details: species or system mouse. The settings on record: Suppl. Fig 9, glycan SLP, median. As for the experimental part: Single molecule imaging was performed on a Nikon Ti2 N-STORM system equipped with TIRF module, Z piezo element, perfect focus system for axial drift correction and an OkoLab incubator with temperature and CO2 controller (37 °C and 5% CO2) for live-cell imaging. Recordings were acquired using the 647 nm excitation laser (160 mW, 1.9 kW/cm^2). Upon laser excitation, fluorescence was collected by a 100x 1.49 NA oil-immersion objective, passed through a quad-band dichroic mirror (97335 Nikon), and detected by a Hamamatsu ORCA Flash 4.0 CMOS camera with 160 nm pixel size. The signal was collected using the following settings: 512 × 512 pixel region, no binning, pixel depth 16-bit, exposure time 50 ms, live-cell observation and 2D-STORM (lens out), zoom 1x, lens x0.4, and for live-cell observation at 37 °C, the correction collar was set to position 8160.
5 x 10^4 CHO-MR or 1 x 10^5 WT, MR^−/− BMDC or BMDM were seeded in 8-well glass-bottomed microscopy slides (Ibidi, 80827) in complete medium. After equilibration in the microscope incubator, fluorescent glycan was added at 5 nM for CHO-MR and 10 nM for BMDC or BMDM experiments. Then, cells were brought into focus using brightfield illumination and 2000 frames (at 50 ms intervals) were recorded within a single field-of-view at 40–60% of maximum 647 nm laser power using TIRF illumination. For indicated experiments, Cytochalasin D (Focus Biomolecules) was added to a final concentration of 10 µM for 30 min prior to acquisition.
Processing of recordings using Glyco-PAINT-APP was performed as described in a step-by-step procedure in the Supplementary Software Manual in the Supplementary Information and accompanying Supplementary Videos 1 and 2. For the TrackMate processing, a batch file (Experiment Info.csv) containing the experiment metadata and tracking parameters was created. Threshold values were set to 5, 10 or 15 such that no more than 1.500.000 spots were detected. Recordings were then processed in TrackMate using the ‘Run TrackMate Batch’ plugin provided by the Glyco-PAINT-APP. Through this plugin, spot detection and tracking by TrackMate[70] was performed as indicated in the batch file using the Simple LAP tracker algorithm with a maximum frame gap of 3, a max linking distance of 0.6 μm and a gap closing max distance of 1.2 μm. Tracks with only two spots were discarded. For the parameter sensitivity analysis, each tracking or spot detection was varied as indicated, whilst the others were kept at aforementioned values (Basis scenario).
With the Glyco-PAINT-APP utility ‘Generate Squares’, a grid of squares was overlaid, and kinetic properties for each square were calculated. Default parameters for grid processing are (deviations are mentioned in figure captions): Nr of Squares in row 20, Minimum Tracks to Calculate Tau 20, Min allowable R Squared 0.1, Min Required Density Ratio 2, Maximum Allowable Variability 10 and Neighbour Mode Free.
For every recording, a background track count was calculated by averaging the track count of the 40 (10% of the total number of squares) least dense squares. Only squares for which the track count exceeded the Min Required Density Ratio of 2 were considered (and the remaining ignored as background). For each square, the variability was calculated and only squares for which the variability was less than the Maximum Allowable Variability of 10 were considered. For squares meeting both the Minimum Required Density Ratio and Maximum Allowable Variability criteria, and containing at least the Minimum Tracks to Calculate Tau kinetic parameters, including kon, koff and MSD were calculated as in Riera et al.[10], or copied from the TrackMate Tracks table output (for velocity, displacement, and track duration).

Assay [2] concerns WT BMDC (CD11c+). As to the kind of experiment: Glycan SLP uptake by flow cytometry (phagocytic index), WT BMDC. To be noted: for phagocytic index: Fig 4d source data, BMDC incubated 1 h with probe, CD11c+ cells, per experiment, two technical replicates. The assay is classed as cell-based, mouse. As for the experimental part: 2.5 x 10^5 WT, MR^−/− BMDC or BMDM were seeded after treatment with polarizing stimulus as described below in a 96 well v-bottom plate (Sarstedt, 82.1583001). The next day, Glycan SLP probes were added to the cells at 250 nM and incubated for 1 h at 37 °C. Active uptake was halted by addition of ice-cold PBS and washed twice with PBS + 2% FCS + 2 mM EDTA (300 rcf, 5 min., rt). Cells were stained with a selection of the following stains and antibodies: Zombie Yellow (Biolegend, 423103, 1:500), TruStain FcX (Biolegend, cat no 101319, 1:100), CD11c - eFluor450 (clone: N418, eBioscience, cat no 48-0114-82, dilution 1:200), CD206-AF488 or AF647 (clone: MR5D3, Biorad, MCA2235A488T, 1:20), CD86-PerCP (Biolegend, cat no 105025, clone GL-1, 1:200), F4/80-APC-Cy7 (Biolegend, cat no 123117, clone BM8, dilution 1:400), MHC-II-AF488 (Biolegend, cat no 107615, clone M5/114.15.2, dilution 1:1000) for 30 min. on ice. Then cells were washed twice with PBS + 2% FCS + 2 mM EDTA and acquired on Guava EasyCyte 12HT. For BMDM uptake and characterization, an identical procedure was followed but acquisition was performed on Sony ID7000 spectral flow cytometer. Analysis was performed using FlowJo v8. Phagocytic index (PI) was calculated according to equation 1. Statistical analysis and plotting were performed using GraphPad Prism V10.1 PI=%sCy5^+cellsxMFIsCy5^+cells−%sCy5^−cellsxMFIsCy5^−cells
In general terms: In flow cytometry, cells or beads pass a laser one at a time.

As to “Ac-Lys(Man)-Lys(Man)-Lys(Man)-Lys(Man)-Lys(Man)-Lys(Man)-TEG-Asp-Glu-Val-Ser-Gly-Leu-Glu-Gln-Leu-Glu-Ser-Ile-Ile-Asn-Phe-Glu-Lys-Leu-Ala-Ala-Ala-Ala-Ala-Lys(sCy5)-NH2 ({Ac-K(Man)-K(Man)-K(Man)-K(Man)-K(Man)-K(Man)-TEG}-DEVSGLEQLESIINFEKLAAAAAK(sCy5)-NH2) [6 Mono(3), hexavalent monomannosylated OVA SLP with sulfo-Cy5]”, in assay [1], the “koff−1” value is 180 ms and the kon turned out to be 6.3 evts μm−2 sec−1. Moreover, the phagocytic index in assay [2] is 351.961 and 267.849 and 647.297 and 867.13 and 676 and 415.

As to “Ac-Lys(triMan)-TEG-Asp-Glu-Val-Ser-Gly-Leu-Glu-Gln-Leu-Glu-Ser-Ile-Ile-Asn-Phe-Glu-Lys-Leu-Ala-Ala-Ala-Ala-Ala-Lys(sCy5)-NH2 (DEVSGLEQLESIINFEKLAAAAAK; Ac-Lys(triMan)-TEG, sulfo-Cy5, C-amide; printed: Asp-Glu-Val-Ser-Gly-Leu-Glu-Gln-Leu-Glu-Ser-Ile-Ile-Asn-Phe-Glu-Lys-Leu-Ala-Ala-Ala-Ala-Ala-Lys) [1 Tri(4), monovalent trimannosylated OVA SLP with sulfo-Cy5]”, in assay [1], the “koff−1” value is 160 ms and the kon was 6 evts μm−2 sec−1. Moreover, the phagocytic index in assay [2] is 866.48 and 744.547 and 660.373 and 1168.46 and 1459 and 1224.

Take “Ac-Lys(Man)-Gly-Lys(Man)-TEG-Asp-Glu-Val-Ser-Gly-Leu-Glu-Gln-Leu-Glu-Ser-Ile-Ile-Asn-Phe-Glu-Lys-Leu-Ala-Ala-Ala-Ala-Ala-Lys(sCy5)-NH2 ({Ac-K(Man)-Gly-K(Man)-TEG}-DEVSGLEQLESIINFEKLAAAAAK(sCy5)-NH2) [2 Mono(2), bivalent monomannosylated OVA SLP with sulfo-Cy5]”: in assay [1], the “koff−1” value is reported as 151 ms and the kon is given as 2 evts μm−2 sec−1. In addition, the phagocytic index in assay [2] is 468.878 and 326.94 and 575.997 and 867.184 and 474 and -18.

“Ac-Lys(triMan)-Gly-Lys(triMan)-TEG-Asp-Glu-Val-Ser-Gly-Leu-Glu-Gln-Leu-Glu-Ser-Ile-Ile-Asn-Phe-Glu-Lys-Leu-Ala-Ala-Ala-Ala-Ala-Lys(sCy5)-NH2 (DEVSGLEQLESIINFEKLAAAAAK; two Lys(triMan), TEG, sulfo-Cy5, C-amide; printed: Asp-Glu-Val-Ser-Gly-Leu-Glu-Gln-Leu-Glu-Ser-Ile-Ile-Asn-Phe-Glu-Lys-Leu-Ala-Ala-Ala-Ala-Ala-Lys) [2 Tri(5), bivalent trimannosylated OVA SLP with sulfo-Cy5]”: in assay [1], the “koff−1” value worked out at 141 ms and the kon is listed as 4.6 evts μm−2 sec−1. For the same substance, the “uptake (phagocytic index) by BMDC” value in assay [2] (1 h incubation, sCy5 signal by flow cytometry) is “most effectively taken up”. In assay [2], the phagocytic index was 739.67 and 711.569 and 1725.6 and 1909.99 and 2022 and 1371.

In the case of “Ac-Lys(triMan)-Lys(triMan)-Lys(triMan)-Lys(triMan)-Lys(triMan)-Lys(triMan)-TEG-Asp-Glu-Val-Ser-Gly-Leu-Glu-Gln-Leu-Glu-Ser-Ile-Ile-Asn-Phe-Glu-Lys-Leu-Ala-Ala-Ala-Ala-Ala-Lys(sCy5)-NH2 (DEVSGLEQLESIINFEKLAAAAAK; six Lys(triMan), TEG, sulfo-Cy5, C-amide; printed: Asp-Glu-Val-Ser-Gly-Leu-Glu-Gln-Leu-Glu-Ser-Ile-Ile-Asn-Phe-Glu-Lys-Leu-Ala-Ala-Ala-Ala-Ala-Lys) [6 Tri(6), hexavalent trimannosylated OVA SLP with sulfo-Cy5]”, in assay [1], the “koff−1” value is reported as 115 ms and the kon amounted to 1.1 evts μm−2 sec−1. For the same substance, the phagocytic index in assay [2] is 418.118 and 415.333 and 1097.76 and 913.574 and 294 and 434.

Turning to “Ac-Lys(Man)-TEG-Asp-Glu-Val-Ser-Gly-Leu-Glu-Gln-Leu-Glu-Ser-Ile-Ile-Asn-Phe-Glu-Lys-Leu-Ala-Ala-Ala-Ala-Ala-Lys(sCy5)-NH2 ({Ac-K(Man)-TEG}-DEVSGLEQLESIINFEKLAAAAAK(sCy5)-NH2) [1 Mono(1), monovalent monomannosylated OVA SLP with sulfo-Cy5]”, in assay [1], the “koff−1” value turned out to be 182 ms and the kon is recorded as 6.2 evts μm−2 sec−1. Besides, the phagocytic index in assay [2] was 18.2246 and 7.8718 and 19.8915 and 23.9776 and -43 and 24.
